Measurements published in EP0679394B1, “Menatetronome derivative as antiarteriosclerotic agent” (Eisai Co., Ltd., priority 1994, dated 1995).

What was measured:
arteriosclerotic rats = test: Effect of vitamin K2 on arteriosclerotic rats (vitamin D2-induced calcification); type: in vivo
Procedure: Then vitamin D2, vitamin D2 with vitamin K2 (in a low dose), and vitamin D2 with vitamin K2 (in a high dose) were given respectively to the groups A, B and C.
After feeding for five weeks, the urine of each group was sampled for a period of 20 hours and the urinary calcium, phosphorus and creatinine levels were measured.
After feeding for six weeks, the animals of each group were bled to death and the blood, aorta (from the aortic arch to the thoracic aorta) and kidneys were sampled.
The serum was separated from the blood and the serum calcium and phosphorus levels were measured.
The aorta and kidneys were defatted, dehydrated and incinerated and the calcium and phosphorus contents therein were determined.
The calcium concentrations were determined by atomic absorption spectrophotometry. The inorganic phosphorus concentrations were determined by Goldenberg's method. The creatinine concentrations were determined by the enzymatic method.
(The data of each group were compared with those of the control group according to the t-test method.)

[1] = Acute (single administration) toxicity test in rats; type: in vivo, SD rats; details: in vivo, Rat M, medium 5% gum arabic
Procedure: (§1) Next, the results of the acute toxicity test of 2-methyl-3-[(2E,6E,10E)-3,7,11,15-tetramethyl-2,6,10,14-hexadecatetraenyl]naphthoquinone (generic name: vitamin K2), which is a typical example of the compound of the present invention, will be given. An acute toxicity test was conducted as follows:
(§2) A single administration toxicity test was effected by orally, subcutaneously and intraperitoneally administering the test compound (medium: 5% gum arabic) to SD rats, ICR mice and beagles aged 7 to 8 weeks (5 females and 5 males in each case).

SD rats = test: as above; type: in vivo; details: Rat F, medium 5% gum arabic
Procedure: as §1, §2

[2] = Acute (single administration) toxicity test in mice; type: in vivo, ICR mice; details: in vivo, Mouse M, medium 5% gum arabic
Procedure: as §1, §2

ICR mice = test: as above; type: in vivo; details: Mouse F, medium 5% gum arabic
Procedure: as §1, §2

[3] = Acute (single administration) toxicity test in beagles; type: in vivo; details: dog, in vivo, Beagle M, medium 5% gum arabic
Procedure: as §1, §2

beagles = test: as above; type: in vivo; details: Beagle F, medium 5% gum arabic
Procedure: as §1, §2

[4] = Group A: vitamin D2 2.5 × 10^5 IU/kg/day p.o. alone, 6 weeks, n=8

C=C1CC[C@H](O)C/C1=C/C=C1\CCC[C@]2(C)[C@@H]([C@H](C)/C=C/[C@H](C)C(C)C)CC[C@@H]12 [vitamin D2]
Aorta Ca (arteriosclerotic rats; [4]): 11.6 ± 11.1 mg/dL | Aorta P (arteriosclerotic rats; [4]): 10.9 ± 7.1 mg/dL | Kidney Ca (arteriosclerotic rats; [4]): 7.6 ± 7.8 mg/dL | Kidney P (arteriosclerotic rats; [4]): 7.2 ± 2.0 mg/dL | calcium and phosphorus contents in the aorta (arteriosclerotic rats; group A, vitamin D2 2.5 × 10^5 IU/kg/day p.o. alone, 6 weeks): significant increases

CC(C)=CCC/C(C)=C/CC/C(C)=C/CC/C(C)=C/CC1=C(C)C(=O)c2ccccc2C1=O [vitamin K2, 2-Methyl-3-[(2E,6E,10E)-3,7,11,15-tetramethyl-2,6,10,14-hexadecatetraenyl]naphthoquinone]
LD50 ([1]; ip, intraperitoneal): > 5000 mg/kg | LD50 ([1]; oral): > 5000 mg/kg | LD50 ([1]; sc, subcutaneous): > 5000 mg/kg | LD50 (SD rats; intraperitoneal): >5000 mg/kg | LD50 (SD rats; oral): >5000 mg/kg | LD50 (SD rats; subcutaneous): >5000 mg/kg | LD50 ([2]; ip, intraperitoneal): > 5000 mg/kg | LD50 ([2]; oral): > 5000 mg/kg | LD50 ([2]; sc, subcutaneous): > 5000 mg/kg | LD50 (ICR mice; intraperitoneal): >5000 mg/kg | LD50 (ICR mice; oral): >5000 mg/kg | LD50 (ICR mice; subcutaneous): >5000 mg/kg | LD50 ([3]; ip, intraperitoneal): > 3000 mg/kg | LD50 ([3]; oral): > 3000 mg/kg | LD50 ([3]; sc, subcutaneous): > 3000 mg/kg | LD50 (beagles; intraperitoneal): >3000 mg/kg | LD50 (beagles; oral): >3000 mg/kg | LD50 (beagles; subcutaneous): >3000 mg/kg | Aorta Ca (arteriosclerotic rats; po, 10 mg/kg, 1008 h): 5.0 ± 3.8 mg/dL | Aorta P (arteriosclerotic rats; po, 10 mg/kg, 1008 h): 12.6 ± 12.2 mg/dL | Kidney Ca (arteriosclerotic rats; po, 10 mg/kg, 1008 h): 3.4 ± 3.8 mg/dL | Kidney P (arteriosclerotic rats; po, 10 mg/kg, 1008 h): 6.3 ± 2.7 mg/dL | Aorta Ca (arteriosclerotic rats; po, 100 mg/kg, 1008 h): 2.6 ± 3.2 mg/dL | Aorta P (arteriosclerotic rats; po, 100 mg/kg, 1008 h): 3.7 ± 4.3 mg/dL | Kidney Ca (arteriosclerotic rats; po, 100 mg/kg, 1008 h): 1.6 ± 1.4 mg/dL | Kidney P (arteriosclerotic rats; po, 100 mg/kg, 1008 h): 4.5 ± 1.4 mg/dL
